A value given as a limit tells only on which side of the number the result lay.

This is an account of results in patent US5795907A, “Gastin and CCK receptor ligands” (James Black Foundation Limited, priority 1994, dated 1998).

One test has as its target T1, CCKB receptor (Mus musculus, UniProt P56481).
T1 construct: The cortex was dissected, weighed and homogenised in 40ml ice-cold buffer; tissue Charles River (supplier of the CD1 mice); host or cells: cerebral cortex membranes of male CD1 mice
T1 sequence (P56481 1-453): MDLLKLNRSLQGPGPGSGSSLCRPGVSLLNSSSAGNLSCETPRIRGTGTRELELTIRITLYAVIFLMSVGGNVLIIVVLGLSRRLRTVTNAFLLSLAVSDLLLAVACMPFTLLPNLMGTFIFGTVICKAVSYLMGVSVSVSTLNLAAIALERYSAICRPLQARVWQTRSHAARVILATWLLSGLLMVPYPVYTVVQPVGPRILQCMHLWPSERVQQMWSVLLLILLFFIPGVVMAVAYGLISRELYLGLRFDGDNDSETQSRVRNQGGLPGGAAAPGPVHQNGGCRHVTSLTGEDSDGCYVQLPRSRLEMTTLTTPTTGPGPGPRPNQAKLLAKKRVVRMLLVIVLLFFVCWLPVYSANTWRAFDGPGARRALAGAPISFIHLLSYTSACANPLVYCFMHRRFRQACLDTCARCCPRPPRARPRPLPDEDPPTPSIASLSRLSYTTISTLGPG
Briefly: CCKB receptor radioligand binding assay in mouse cortical membranes ([125I]-CCK8S). As to conditions: [125I]-CCK8S 200 pM, 150 min at 21±3°; for Ki: read-out: CCKB pKi (converted). Summed up: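 This was competition binding with tracer [125I]-CCK8S (200 pM solution added), run for 150 min at 21±3° on male CD1 mouse cortex membranes in pH 7.2 HEPES buffer with bacitracin. Filtration then gamma counting gave bound radioactivity. L-365,260 set the non-specific level.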

A further test deals with T2, gastrin (Rattus norvegicus, UniProt P30553).
T2 construct: The stomach was lowered into a jacketed organ bath containing 40 ml of buffered solution; from tissue; host or cells: isolated perfused whole stomach of immature rats (ca. 21 days old)
T2 sequence (P30553 1-452): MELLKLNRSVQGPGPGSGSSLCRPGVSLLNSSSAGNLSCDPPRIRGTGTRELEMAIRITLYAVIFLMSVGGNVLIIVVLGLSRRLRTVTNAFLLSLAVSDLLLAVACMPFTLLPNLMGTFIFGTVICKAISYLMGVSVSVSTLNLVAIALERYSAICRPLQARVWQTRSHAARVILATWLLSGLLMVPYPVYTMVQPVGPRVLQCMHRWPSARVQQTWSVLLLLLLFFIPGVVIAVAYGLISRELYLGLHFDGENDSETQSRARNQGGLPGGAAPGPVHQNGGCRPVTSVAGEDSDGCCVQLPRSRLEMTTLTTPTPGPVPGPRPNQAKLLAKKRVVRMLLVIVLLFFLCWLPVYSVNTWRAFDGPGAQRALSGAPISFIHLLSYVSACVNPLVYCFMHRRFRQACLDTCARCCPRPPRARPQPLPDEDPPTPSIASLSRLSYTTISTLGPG
Briefly: gastrin antagonist activity in an immature rat stomach assay (pentagastrin-stimulated acid secretion). As to conditions: cumulative pentagastrin dose-response curves after 60 min with drug; for Kb: read-out: Gastrin pKB (converted). How it is done:
The compounds of the examples were also tested for gastrin antagonist activity in an immature rat stomach assay. The procedure was as follows:
The oesophagus of immature rats (33-50 g, ca. 21 days old) was ligated at the level of the cardiac sphincter and the duodenal sphincter was cannulated. The stomach was excised and flushed with ca. 1 ml of unbuffered physiological saline solution. The fundus was punctured and cannulated. A further 4-5 ml of unbuffered solution was flushed through the stomach to ensure the preparation was not leaking. The stomach was lowered into a jacketed organ bath containing 40 ml of buffered solution containing 3×10^-8 M 5-methylfurmethide, maintained at 37° and gassed vigorously with 95% O2 /5% CO2. The stomach was continuously perfused at a rate of 1 ml min^-1 with unbuffered solution gassed with 100% O2 with the perfusate passing over an internally referenced pH-electrode fixed 12 cm above the stomach.
After 120 min of stabilisation the drugs were added directly to the serosal solution in the organ bath and after a further 60 min cumulative pentagastrin dose-response curves were started. Changes in acid secretion were monitored and the curves analysed according to Black et.al., Br. J. Pharmacol., 1985, 86, 581.

For the next test, the target named is T3, CCKA (Cavia porcellus, UniProt Q63931).
T3 construct: The pancreatata were homogenised in 40 ml ice-cold HEPES buffer using a polytron; from tissue; host or cells: pancreas membranes of male Dunkin Hartley guinea-pigs
T3 sequence (Q63931 1-430): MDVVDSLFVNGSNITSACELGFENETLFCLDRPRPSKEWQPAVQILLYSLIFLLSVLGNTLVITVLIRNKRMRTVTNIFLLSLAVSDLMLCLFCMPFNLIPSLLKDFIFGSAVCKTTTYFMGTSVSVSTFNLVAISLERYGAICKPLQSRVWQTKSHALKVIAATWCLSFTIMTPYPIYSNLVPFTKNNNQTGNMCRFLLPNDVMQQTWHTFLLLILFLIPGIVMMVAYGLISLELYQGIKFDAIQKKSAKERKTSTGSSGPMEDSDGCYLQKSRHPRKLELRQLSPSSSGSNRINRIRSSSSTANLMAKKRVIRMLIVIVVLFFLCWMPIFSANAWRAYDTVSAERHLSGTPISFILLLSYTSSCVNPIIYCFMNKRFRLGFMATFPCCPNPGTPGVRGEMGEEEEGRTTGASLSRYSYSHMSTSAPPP
Briefly: CCKA radioligand binding assay in guinea-pig pancreas membranes ([125I]-CCK8(S)). The following applies: PD134,308 present, 150 minutes at 21±3°; for Ki: read-out: CCKA pKi (converted). Summed up: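 Competition for [125I]-CCK8(S) (added as […] solution) ran for 150 min at 21±3° in HEPES pH 7.2. Membranes came from male guinea-pig pancreas at 1 mg/ml original wet weight, with 0.375 μM PD134,308 in the suspension. Filter-bound counts were gamma-counted; 100 nM L-364,718 (added solution) defined non-specific binding.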

As for `O=C(O)CNC(=O)[C@@H](Cc1ccccc1)NC(=O)c1cc2cc[nH]c2cc1C(=O)NCC12CC3CC(CC(C3)C1)C2` [Example 91, 5-(1R-(carboxymethylaminocarbonyl)-2-phenylethylaminocarbonyl)-6-(1-adamantanemethylaminocarbonyl)-indole], the “CCKB pKi” value on CCKB receptor was 7.4. Moreover, on gastrin, the “Gastrin pKB” value turned out to be 8.0. The “CCKA pKi” value on CCKA is reported as 5.3.

Regarding `C[C@H](NC(=O)c1cc2[nH]ccc2cc1C(=O)NCC12CC3CC(CC(C3)C1)C2)C(=O)Nc1cc(C(=O)O)cc(C(=O)O)c1` [Example 48, 6-(1S-(3,5-dicarboxyphenylaminocarbonyl)-ethylaminocarbonyl)-5-(1-adamantanemethylaminocarbonyl)-indole], the Ki at CCKB receptor was 631 nM; at CCKA it was 3160 nM. Also, the Kb at gastrin was 100 nM.

As to `O=C(NCC12CC3CC(CC(C3)C1)C2)c1cc2nc[nH]c2cc1C(=O)N[C@@H](Cc1ccccc1)C(=O)Nc1cccc(-c2nn[nH]n2)c1` [Example 83, 5-(1S-(3-tetrazolylphenylaminocarbonyl)-2-phenylethylaminocarbonyl)-6-(1-adamantanemethylaminocarbonyl)-benzimidazole], the values for the Ki at CCKB receptor and on CCKA were 15.8 nM and 398 nM, respectively. Moreover, at gastrin, the Kb is 63.1 nM.

As for `O=C(O)c1cc(NC(=O)C(Cc2c(F)c(F)c(F)c(F)c2F)NC(=O)c2cc3[nH]cnc3cc2C(=O)NCC23CC4CC(CC(C4)C2)C3)cc(C(=O)O)c1` (racemic) [Example 136, (±)-5-(1-(3,5-dicarboxyphenylaminocarbonyl)-2-pentafluorophenylethylaminocarbonyl)-6-(1-adamantanemethylaminocarbonyl)-benzimidazole], the figures for the Ki on CCKB receptor and on CCKA were 1.26 nM and over 10000 nM, respectively. Moreover, the Kb at gastrin is 0.316 nM.

Take `O=C(O)c1cc(NC(=O)[C@H](Cc2c[nH]cn2)NC(=O)c2cc3[nH]cnc3cc2C(=O)NCC23CC4CC(CC(C4)C2)C3)cc(C(=O)O)c1` [Example 69, 5-(1S-(3,5-dicarboxyphenylaminocarbonyl)-2-(2,4-imidazolyl)ethylaminocarbonyl)-6-(1-adamantanemethylaminocarbonyl)-benzimidazole]: the Ki was 316 nM at CCKB receptor and 7940 nM on CCKA. Moreover, the Kb at gastrin is 79.4 nM.

For `O=C(O)c1cc(NC(=O)[C@H](Cc2ccccc2Cl)NC(=O)c2cc3[nH]cnc3cc2C(=O)NCC23CC4CC(CC(C4)C2)C3)cc(C(=O)O)c1` [Example 135, 5-(1S-(3,5-dicarboxyphenylaminocarbonyl)-2-(2-chlorophenyl)ethylaminocarbonyl)-6-(1-adamantanemethylaminocarbonyl)-benzimidazole], the “CCKB pKi” value on CCKB receptor was determined as 8.3. For the same compound, at gastrin, the “Gastrin pKB” value was determined as 8.9. The “CCKA pKi” value at CCKA turned out to be 5.1.

For the compound `O=C(NO)c1cc(NC(=O)[C@H](Cc2ccccc2)NC(=O)c2cc3cc[nH]c3cc2C(=O)NCC23CC4CC(CC(C4)C2)C3)cc(C(=O)NO)c1` [Example 34, 5-(1S-(3,5-dihydroxyaminocarbonylphenylaminocarbonyl)-2-phenylethylaminocarbonyl)-6-(1-adamantanemethylaminocarbonyl)-indole], the Ki on CCKB receptor is 7.94 nM; on CCKA, 794 nM. Besides, the Kb on gastrin is 2 nM.

As to “5-(1S-(3,5-dicarboxyphenylaminocarbonyl)-2-(4-aminophenyl)ethylaminocarbonyl)-6-(1-adamantanemethylaminocarbonyl)-indole and regioisomer with substituents at positions 5 and 6 reversed [Example 31]”, the “CCKB pKi” value at CCKB receptor came to 7.9. Further, the “Gastrin pKB” value on gastrin is on record as 8.9. Further, on CCKA, the “CCKA pKi” value is listed as 5.5.

Turning to `O=C(NCC12CC3CC(CC(C3)C1)C2)c1cc2nc[nH]c2cc1C(=O)N[C@@H](Cc1ccccc1)C(=O)Nc1cc(-c2nn[nH]n2)cc(-c2nn[nH]n2)c1` [Example 80, 5-(1S-(3,5-ditetrazolylphenylaminocarbonyl)-2-phenylethylaminocarbonyl)-6-(1-adamantanemethylaminocarbonyl)-benzimidazole], the values for the Ki at CCKB receptor and at CCKA were 3.98 nM and 794 nM, respectively. For the same compound, the Kb on gastrin was 6.31 nM.

Consider `COC(=O)c1cc(NC(=O)[C@H](Cc2ccccc2)NC(=O)c2cc3ccoc3cc2C(=O)NCC23CC4CC(CC(C4)C2)C3)cc(C(=O)OC)c1` [Example 124, 5-(1S-(3,5-dimethoxycarbonylphenylaminocarbonyl)-2-phenylethylaminocarbonyl)-6-(1-adamantanemethylaminocarbonyl)-benzofuran], for which, on CCKB receptor, the “CCKB pKi” value turned out to be 6.5. The “Gastrin pKB” value on gastrin was 6.8. Moreover, the “CCKA pKi” value at CCKA was 5.7.

Turning to `C[C@@H](NC(=O)c1cc2ccccc2cc1C(=O)NCC12CC3CC(CC(C3)C1)C2)C(=O)O` [Example 5, 2-(1R-carboxyethylamino-carbonyl)-3-(1-adamantanemethylaminocarbonyl)-naphthalene], the results for the Ki on CCKB receptor and on CCKA were 1000 nM and 6310 nM, respectively. Further, at gastrin, the Kb is 158 nM.

With `CC(C)(C)NS(=O)(=O)c1cc(NC(=O)[C@H](Cc2ccccc2)NC(=O)c2cc3cc[nH]c3cc2C(=O)NCC23CC4CC(CC(C4)C2)C3)cc(S(=O)(=O)NC(C)(C)C)c1` [Example 95, 5-(1S-(3,5-di-tert-butylaminosulphonylphenylaminocarbonyl)-2-phenylethylaminocarbonyl)-6-(1-adamantanemethylaminocarbonyl)-indole], the “CCKB pKi” value at CCKB receptor was found to be 5.9. At gastrin, the “Gastrin pKB” value is 5.9. Also, on CCKA, the “CCKA pKi” value worked out at 5.8.

With `O=C(O)c1cc2ccccc2cc1C(=O)NCC12CC3CC(CC(C3)C1)C2` [Example 1, 3-(1-adamantanemethylaminocarbonyl)-2-naphthoic acid], the Ki at CCKB receptor is 3160 nM; on CCKA, 7940 nM. Further, the Kb on gastrin was 1580 nM.

Take “5-(1R-(3,5-dicarboxyphenylaminocarbonyl)-ethylaminocarbonyl)-6-(cycloheptanemethylaminocarbonyl)-indole and regioisomer with substituents at positions 5 and 6 reversed [Example 59]”: the “CCKB pKi” value on CCKB receptor is recorded as 6.9. The “Gastrin pKB” value at gastrin worked out at 7.5. In addition, the “CCKA pKi” value on CCKA is listed as 5.1.
